Drawing on PubChem BioAssay (NCI), this text covers GI50 and TGI for ten molecules.

Assay in all cases: NCI anticancer screen, dose series, 48 h
Assay [1] relates to HOP-92 NSCLC.
The test system of assay [2] is SN12C renal.
Assay [3] deals with LOX IMVI melanoma.
Assay [4] deals with OVCAR-4 ovarian.
The subject of assay [5] is 786-0 renal.
The subject of assay [6] is IGROV1 ovarian.
Assay [7] relates to TK-10 renal.
The test system of assay [8] is NCI-H522 lung.

SMILES strings stand for the structures.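 Each compound was tested at five concentrations against cells in 96-well plates for 48 hours. GI50 marks 50% less growth. The concentration for full growth arrest is given as TGI.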

As to `Clc1cc2c(cc1Cl)Oc1cc(Cl)c(Cl)cc1O2`, the GI50 in assay [1], in assay [2], in assay [3], in assay [4], in assay [5] and in assay [6] was over 0.625 µM in each case. Further, the GI50 in assay [7] and in assay [8] was over 0.625 µM each time. Moreover, the TGI in assay [1], in assay [2], in assay [3], in assay [4], in assay [5] and in assay [6] was over 0.625 µM each time. Besides, the TGI in assay [7] and in assay [8] was over 0.625 µM each time.

As for `COc1cc(-n2cc(-c3ccc(F)cc3)nc2SCc2ccccc2)cc(OC)c1OC`, the GI50 in assay [1] was 1.48 µM; in assay [2], over 100 µM; in assay [3], over 100 µM; in assay [4], over 100 µM; in assay [5], over 100 µM; in assay [6], over 100 µM. Further, the GI50 in assay [7] is over 100 µM; in assay [8], 89.8 µM. For the same molecule, the TGI in assay [1] is 37 µM; in assay [2], over 100 µM; in assay [3], over 100 µM; in assay [4], over 100 µM; in assay [5], over 100 µM; in assay [6], over 100 µM. The TGI in assay [7] and in assay [8] was over 100 µM throughout.

Consider `O=C1CC(c2cccc(O)c2)C2(C(=O)NC(=S)NC2=O)C(c2cccc(O)c2)C1` (centres undefined), for which the GI50 in assay [1], in assay [2], in assay [3], in assay [4], in assay [5] and in assay [6] was over 100 µM in each case. The GI50 in assay [7] and in assay [8] was over 100 µM throughout. The TGI in assay [1], in assay [2], in assay [3], in assay [4], in assay [5] and in assay [6] was over 100 µM each time. Further, the TGI in assay [7] and in assay [8] was over 100 µM each time.

`Oc1ccc(CN2CCC(N3CCOCC3)CC2)c2cccnc12`: the GI50 in assay [1] is 65.9 µM; in assay [2] it was 47.5 µM; in assay [3], 29.9 µM; in assay [4], 22.9 µM; in assay [5], 42.2 µM; in assay [6], 30.9 µM. Also, the values for the GI50 in assay [7] and in assay [8] were 62.4 µM and 26.5 µM, respectively. Also, the TGI in assay [1], in assay [2], in assay [3], in assay [4], in assay [5] and in assay [6] was over 100 µM in each case. The TGI in assay [7] is over 100 µM; in assay [8], 61.2 µM.

On to `Nc1nc(N)c(Cn2ccnc2)c(=O)[nH]1`, for which the TGI in assay [1], in assay [2], in assay [3], in assay [4], in assay [5] and in assay [6] was over 100 µM throughout. The TGI in assay [7] and in assay [8] was over 100 µM each time.

`CCCCCc1nc2c(c3c1CCCC3)CCCC2`: the GI50 in assay [1] is 1.95 µM; in assay [2] it was 12.3 µM; in assay [3], 13.4 µM; in assay [4], 5.61 µM; in assay [5], 13.4 µM; in assay [6], 5.73 µM. Besides, the GI50 in assay [7] is 8.44 µM; in assay [8], 2.84 µM. Further, the TGI in assay [1] was found to be 8.36 µM; in assay [2], 34.2 µM; in assay [3] it was 27 µM; in assay [4], 95.3 µM; in assay [5], 27.8 µM; in assay [6], 26.2 µM. Besides, the TGI amounted to 22.4 µM in assay [7] and 17.9 µM in assay [8].

On to `CCOc1ccc(-c2cnnn2-c2nonc2-n2cccc2)cc1`, for which the GI50 in assay [1] was 0.401 µM; in assay [2] it was 0.557 µM; in assay [3] it was 0.46 µM; in assay [4], 0.655 µM; in assay [5] it was 0.416 µM; in assay [6], 0.581 µM. Moreover, the GI50 in assay [7] was 0.597 µM; in assay [8], 0.121 µM. Also, the TGI is 9.27 µM in assay [1]; over 100 µM in assay [2]; over 100 µM in assay [3]; over 100 µM in assay [4]; over 100 µM in assay [5]; over 100 µM in assay [6]. Moreover, the TGI in assay [7] is over 100 µM; in assay [8], 0.531 µM.

Regarding `C#CCN(Cc1nc2cc(C(F)(F)F)ccc2nc1-c1ccccc1)c1ccc(OC(F)(F)F)cc1`, the GI50 in assay [1] was 18.5 µM; in assay [2], 38.2 µM; in assay [3] it was 37 µM; in assay [4], over 100 µM; in assay [5], over 100 µM; in assay [6], 34.8 µM. The GI50 in assay [7] was 78.9 µM; in assay [8] it was 16.6 µM. Moreover, the TGI in assay [1] was 77.3 µM; in assay [2], over 100 µM; in assay [3], 96.1 µM; in assay [4], over 100 µM; in assay [5] it was over 100 µM; in assay [6] it was over 100 µM. The TGI in assay [7] is over 100 µM; in assay [8], 54.6 µM.

In the case of `Fc1ccc(-c2nn3c(-c4ccc(F)c(Cl)c4)nnc3s2)cc1`, the GI50 in assay [1] is 15.6 µM; in assay [2], 32.3 µM; in assay [3], 32.8 µM; in assay [4], 10.1 µM; in assay [5], 35.3 µM; in assay [6] it was 33.1 µM. In addition, the results for the GI50 in assay [7] and in assay [8] were 14.2 µM and 20.8 µM, respectively. Besides, the TGI is over 50 µM in assay [1]; over 50 µM in assay [2]; over 50 µM in assay [3]; 41 µM in assay [4]; over 50 µM in assay [5]; over 50 µM in assay [6]. Further, the TGI in assay [7] and in assay [8] was over 50 µM throughout.

Regarding `CCC1C(=O)OCc2c1cc1n(c2=O)Cc2cc3ccccc3nc2-1` (centres undefined), the TGI in assay [1] was over 100 µM; in assay [2], over 100 µM; in assay [3] it was over 51.2 µM; in assay [4] it was over 100 µM; in assay [5] it was 27.3 µM; in assay [6], over 100 µM. In addition, the TGI in assay [7] is over 100 µM; in assay [8] it was over 44.4 µM.
